Consider 2 compounds from paper PMC9045377, “CpxA Phosphatase Inhibitor Activates CpxRA and Is a Potential Treatment for Uropathogenic Escherichia coli in a Murine Model of Infection” (Microbiology Spectrum, 2022).

One experiment deals with UPEC strain CFT073. The experiment is classed as in vivo, Escherichia coli (in female CBA/J mice). The following applies: compound 6 trial. The protocol:
Four groups of eight female CBA/J mice were transurethrally inoculated with a target dose of ∼10^8 CFU of either CFT073 or CFT073ΔcpxA::cat. One group was treated with ciprofloxacin (2.5 mg/kg/dose dissolved in sterile distilled water) s.c. 12, 24, 36, 48, and 60 h after inoculation with CFT073 as described ([31]). The untreated CFT073 and CFT073ΔcpxA::cat inoculated groups were given the vehicle control s.c. at 12, 24, 36, 48, and 60 h after inoculation. The compound 6 treated group were given the drug (100 mg/kg) s.c. at 12, 36, and 60 h after inoculation with CFT073 and received the vehicle control s.c. at 24 and 48 h. The animals were sacrificed 4 h after the last treatment (64 h postinoculation) and CFU per milliliter or CFU per gram of tissue was determined in the urine, bladder, and kidneys.
Animal experiments were conducted according to the guidelines of the University of Michigan Institutional Animal Care and Use Committee. For the animal infection experiments, bacterial strains were cultured at 37°C in LB medium overnight with shaking ([30]). Female CBA/J mice (Jackson Laboratories, Bar Harbor, ME) were inoculated transurethrally with a target dose of ∼10^8 CFU of CFT073 or CFT073ΔcpxA::cat. Mice were subsequently treated 12 h later either with the vehicle, ciprofloxacin hydrochloride (PanReac AppliChem ITW Reagents; Jade Scientific), compound 1, compound 6, or compound 26 as described in Results and euthanized 4 h after the last treatment. Bacterial loads of each strain were calculated from the urine, bladder, and kidneys of mice as previously described; the limits of detection for these assays were 100 CFU/mL or 100 CFU/g of urine and tissue, respectively ([33]). Values of 50 CFU/mL or 50 CFU/g were assigned to specimens whose yields were below the limit of detection.
Due to the extreme skewness of the data, natural log transformation was used before the data were analyzed statistically. Descriptive statistics were calculated for all of the log-transformed variables. Statistical comparisons were done using analysis of variance (ANOVA) with follow-up pairwise tests adjusted for multiple comparisons using the Tukey procedure.

A further experiment has as its system CpxR-P. The experiment can be described thus: CpxR-P accumulation in CFT073 cultured in human urine (Phos-Tag gel, Western blot, densitometry). The experiment is classed as cell-based, Escherichia coli. The following applies: 150 μM, 5 h, 4 experiments. The method, then:
To examine whether treatment with compound 26 fostered higher accumulation of CpxR-P in CFT073 than in untreated CFT073 or CFT073ΔcpxA::cat, we cultured CFT073 in human urine in the presence of 150 μM compound 26 dissolved in DMSO, and CFT073 and CFT073ΔcpxA::cat in the presence of DMSO alone (hereafter called the CFT073 and CFT073ΔcpxA::cat controls); we chose 150 μM, as this was the approximate trough concentration of compound 6 detected in murine urine after 3 days of treatment. Briefly, the bacteria were grown in LB medium overnight, pelleted, washed, and inoculated into human urine and allowed to grow for 5 h. […] We harvested bacterial cells, made cell lysates, and detected CpxR and CpxR-P by Western blotting with an anti-MBP-CpxR antiserum as described ([31]). […] To compare the samples, the CpxR and CpxR-P bands were quantified by densitometry using samples from 4 of the independent experiments. […]
E. coli CFT073 and CFT073ΔcpxA::cat were cultured overnight at 37°C in 5 mL of LB medium overnight with shaking. […] Densitometry values were determined using Photoshop 2021 (version 22.4.3), and the ratio of CpxR-P to CpxR was analyzed by one-way ANOVA adjusted for multiple comparisons using the Tukey procedure.
(In general: Immunoblotting shows a protein as a band on a membrane.)

For the compound `NC1CCCc2c1[nH]c1ccc(F)cc21` (centres unmarked) [compound 6], the “CFU of CFT073 recovered in urine vs CFT073-inoculated vehicle control” value in the experiment with UPEC strain CFT073 (8 mice/group, compound 6 100 mg/kg s.c. at 12, 36, 60 h, ciprofloxacin 2.5 mg/kg/dose s.c. at 12, 24, 36, 48, 60 h, sacrifice 64 h) is given as “no effect”. Besides, in the experiment with UPEC strain CFT073 (same regimens), the “CFU of CFT073 recovered in bladder vs CFT073-inoculated vehicle control” value is “no effect” and the “CFU of CFT073 recovered in kidneys vs CFT073-inoculated vehicle control” value is given as “no effect”.

Regarding `N[C@@H]1CCCc2c1[nH]c1cc(F)c(F)cc21` [compound 26], in the experiment on CpxR-P, the “increase of the ratio of CpxR-P to CpxR vs CFT073 control” value amounted to 1.3 fold and the “increase of the ratio of CpxR-P to CpxR vs CFT073ΔcpxA::cat control” value was determined as 1.4 fold.
